The term pKa denotes the pH at which an ionisable group is half protonated. The low end stands for a stronger acid or weaker base, the high end for a weaker acid or stronger base.

One series is described as follows: Colorimetric hydrogen-bond assay with pyrazinone sensor. The following applies: blue-shift of λmax of the sensor, compared with carboxylic acid 1. It counts as physicochemical.
As to `c1ccc(CCc2nnn[nH]2)cc1` [Compound 16, 5-Phenethyl-1H-tetrazole], the “hydrogen-bond (HB) interaction with pyrazinone sensor” value is “significantly stronger HB interactions than the corresponding carboxylic acid”.

Assay in the next series: not given
The following applies: 24 h incubation, aqueous buffer pH 7.4.
As for `Oc1ccccc1SCc1ccccc1` [Compound 34, 2-(Benzylthio)phenol], the “detection after incubation in aqueous buffer (stability)” value is “not detected after the 24 h incubation in aqueous buffer”.

Assay in the next series: not given
The following applies: reason why data were considered unreliable.
Take `Oc1c(F)ccc(Cc2ccccc2)c1F` [Compound 33, 3-Benzyl-2,6-difluorophenol]: the “PAMPA assay observation on the donor plate” value is “compound precipitation”.
`Oc1c(F)cc(Cc2ccccc2)cc1F` [Compound 32, 4-Benzyl-2,6-difluorophenol]: the “PAMPA assay observation on the donor plate” value is “high nonspecific binding”.

A short description of the next series: physchem. The following applies: measured pKa values.
Turning to `S=c1[nH]c(CCc2ccccc2)no1` [Compound 22, 3-Phenethyl-1,2,4-oxadiazole-5(4H)-thione], the pKa is below 4.
Same read-out and setting: the figure for `CS(=O)(=O)NCCCc1ccccc1` [Compound 11, N-(3-Phenylpropyl)methanesulfonamide] is above 8; for `O=c1c(O)c(Cc2ccccc2)c1=O` [Compound 30, 3-Benzyl-4-hydroxycyclobut-3-ene-1,2-dione] it is below 4.
For `CC(=O)N(O)CCc1ccccc1` [Compound 3, N-Hydroxy-N-phenethylacetamide], the pKa is above 8.
`CC(=O)NC(=O)NCc1ccccc1` [Compound 15, N-(Benzylcarbamoyl)acetamide] displayed a pKa above 8.
`O=c1c(O)c(NCc2ccccc2)c1=O` [Compound 31, 3-(Benzylamino)-4-hydroxycyclobut-3-ene-1,2-dione] had a pKa below 4.
Take `NS(=O)(=O)CCc1ccccc1` [Compound 10, 2-Phenylethane-1-sulfonamide]: the pKa was above 8.
The same measure, in the same setting: the figure for `CONC(=O)CCc1ccccc1` [Compound 4, N-Methoxy-3-phenylpropanamide] is above 8; for `CC(=O)NOCCc1ccccc1` [Compound 5, N-Phenethoxyacetamide] it is above 8; for `O=C(CCc1ccccc1)NO` [Compound 2, N-(Hydroxy)-3-phenylpropanamide] it is above 8.

These data come from paper PMC4833640 (Journal of Medicinal Chemistry, 2016).
